# Laboratory results reported in patent US12559474B2, “Triazine derivatives having virus replication inhibitory activity and pharmaceutical composition comprising the same” (priority 2021, dated 2026).
# Read-outs that look alike come from different tables or passages of the source.
# Legend:
# SARS-CoV-2 3CL protease = SARS-CoV-2 3CL protease (Severe acute respiratory syndrome coronavirus 2, UniProt P0DTD1); assay: biochemical; conditions: 50% SARS-CoV-2 3CL protease inhibitory concentration, read-out: IC50
# SARS-CoV-2 = assay: microbe, parasite or virus in culture; type: cell-based; conditions: Severe acute respiratory syndrome coronavirus 2, VeroE6/TMPRSS2, 72 h, 50% SARS-CoV-2 infected cell death inhibitory concentration, VeroE6/TMPRSS2 cells, 3 days culture
Compound,IC50 (SARS-CoV-2 3CL protease; given as class symbols),EC50 (SARS-CoV-2; class symbols),IC50 (SARS-CoV-2 3CL protease; RapidFire MS),EC50 (SARS-CoV-2; CellTiter-Glo 2.0)
Cn1cnc(Cn2c(=O)cc(Nc3cc4cn(C(F)F)nc4cc3Cl)n(Cc3cc(F)c(F)c(F)c3)c2=O)n1 [II-0431],< 0.1 µM,< 1 µM,–,–
Cn1cnc(Cn2c(=O)cc(Nc3cc4cn(C(F)F)nc4cc3Cl)n(Cc3ccc(F)c(C#N)c3)c2=O)n1 [II-0433],< 0.1 µM,< 1 µM,–,–
Cc1cncc(-n2c(=O)nc(Nc3cc4cn(C)nc4cc3Cl)n(Cc3cc(C#N)c(F)cc3Cc3cccc(Cl)c3)c2=O)c1 [II-0434],< 0.1 µM,< 1 µM,–,–
Cc1cncc(-n2c(=O)nc(Nc3cc4cn(C)nc4cc3Cl)n(Cc3cc(F)c(F)cc3OCC(F)(F)F)c2=O)c1 [II-0435],< 0.1 µM,1 to 10 µM,–,–
Cc1cncc(-n2c(=O)nc(Nc3cc4c(C)n(C)nc4cc3Cl)n(Cc3ccc(F)c(C#N)c3)c2=O)c1 [II-0436],< 0.1 µM,< 1 µM,–,–
Cc1c2cc(Nc3nc(=O)n(Cc4ncn(C)n4)c(=O)n3Cc3cc(Cl)c(F)cc3F)c(Cl)cc2nn1C [II-0437],< 0.1 µM,< 1 µM,–,–
Cc1c2cc(Nc3nc(=O)n(Cc4ncn(C)n4)c(=O)n3Cc3cc(F)c(F)c(Cl)c3)c(Cl)cc2nn1C [II-0438],< 0.1 µM,1 to 10 µM,–,–
Cc1cncc(-n2c(=O)nc(Nc3cc4cn(CC(F)F)nc4cc3F)n(Cc3ccc(F)c(C#N)c3)c2=O)c1 [II-0439],< 0.1 µM,< 1 µM,–,–
CNC(=O)Cn1cc2cc(Nc3nc(=O)n(-c4cncc(C)c4)c(=O)n3Cc3cc(F)c(F)c(F)c3)c(Cl)cc2n1 [II-0440],< 0.1 µM,1 to 10 µM,–,–
Cc1cncc(-n2c(=O)nc(Nc3cc4cn(C)nc4cc3Cl)n(Cc3ccc(F)c(Cl)c3)c2=O)c1 [II-0442],< 0.1 µM,< 1 µM,–,–
Cn1cnc(Cn2c(=O)nc(Nc3cc4c(C5CC5)n(C)nc4cc3Cl)n(Cc3cc(F)c(F)cc3F)c2=O)n1 [II-0446],< 0.1 µM,1 to 10 µM,–,–
Cn1cnc(Cn2c(=O)nc(Nc3cc4cn(C)nc4cc3Br)n(Cc3cc(F)c(F)c(F)c3)c2=O)n1 [II-0448],< 0.1 µM,< 1 µM,–,–
Cc1cncc(-n2c(=O)nc(Nc3cc4c(C)n(C)nc4cc3Cl)n(Cc3cc(F)c(F)c(F)c3)c2=O)c1 [II-0449],< 0.1 µM,< 1 µM,–,–
Cc1c2cc(Nc3nc(=O)n(Cc4ncn(C)n4)c(=O)n3Cc3cc(F)c(F)cc3F)c(Cl)cc2nn1C [II-0450],< 0.1 µM,1 to 10 µM,–,–
Cc1c2cc(Nc3nc(=O)n(Cc4ncn(C)n4)c(=O)n3Cc3cc(F)c(F)c(F)c3)c(Cl)cc2nn1C [II-0452],< 0.1 µM,1 to 10 µM,–,–
Cn1cnc(Cn2c(=O)nc(Nc3cc4c(N5CCCC5)n(C)nc4cc3Cl)n(Cc3cc(F)c(F)c(F)c3)c2=O)n1 [II-0453],< 0.1 µM,1 to 10 µM,–,–
COc1c2cc(Nc3nc(=O)n(Cc4ncn(C)n4)c(=O)n3Cc3cc(F)c(F)cc3F)c(Cl)cc2nn1C [II-0454],< 0.1 µM,1 to 10 µM,–,–
Cn1cnc(Cn2c(=O)nc(Nc3cc4c(F)n(C)nc4cc3Cl)n(Cc3cc(F)c(F)cc3F)c2=O)n1 [II-0455],–,–,0.019 µM,0.75 µM
Cc1cncc(-n2c(=O)nc(Nc3c(Cl)cc4nn(C)cc4c3F)n(Cc3ccc(F)c(C#N)c3)c2=O)c1 [II-0458],< 0.1 µM,< 1 µM,–,–
Cn1cnc(Cn2c(=O)nc(Nc3cc4cn(CC(F)F)nc4cc3F)n(Cc3cc(Cl)c(F)cc3F)c2=O)n1 [II-0459],< 0.1 µM,1 to 10 µM,–,–
O=c1[nH]cccc1Cn1c(=O)nc(NC23CC(Nc4ncc(F)cn4)(C2)C3)n(Cc2cc(F)c(F)c(F)c2)c1=O [II-0460],–,–,0.022 µM,19 µM
Cn1cnc(Cn2c(=O)nc(Nc3cc4c(-n5cccn5)n(C)nc4cc3Cl)n(Cc3cc(F)c(F)cc3F)c2=O)n1 [II-0461],< 0.1 µM,1 to 10 µM,–,–
Cn1nc2cc(Cl)c(Nc3nc(=O)n(-c4cncc5ccccc45)c(=O)n3Cc3cc(F)c(F)c(F)c3)cc2c1F [II-0462],< 0.1 µM,< 1 µM,–,–
Cc1cncc(-n2c(=O)nc(Nc3cc4cccnc4cc3Cl)n(Cc3ccc(F)c(C#N)c3)c2=O)c1 [II-0463],< 0.1 µM,< 1 µM,–,–
Cc1cncc(-n2c(=O)nc(Nc3cc4c(F)n(C)nc4cc3Cl)n(Cc3cc(F)c(F)c(F)c3)c2=O)c1 [II-0464],< 0.1 µM,< 1 µM,–,–

Compound,IC50 (SARS-CoV-2 3CL protease; given as class symbols),EC50 (SARS-CoV-2; class symbols),IC50 (SARS-CoV-2 3CL protease; RapidFire MS),EC50 (SARS-CoV-2; CellTiter-Glo 2.0)
Cn1cnc(Cn2c(=O)nc(Nc3cc4cn(CC(F)F)nc4cc3F)n(Cc3cc(F)c(F)c(Cl)c3)c2=O)n1 [II-0466],< 0.1 µM,1 to 10 µM,–,–
Cn1cnc(Cn2c(=O)nc(Nc3cc4c(C(F)(F)F)n(C)nc4cc3Cl)n(Cc3cc(F)c(F)cc3F)c2=O)n1 [II-0468],< 0.1 µM,1 to 10 µM,–,–
Cc1cncc(-n2c(=O)nc(Nc3ccc4nn(C)cc4c3)n(Cc3ccc(F)c(Cl)c3)c2=O)c1 [II-0469],< 0.1 µM,< 1 µM,–,–
Cn1cc2cc(Nc3nc(=O)n(-c4cncc(Cl)c4)c(=O)n3Cc3cc(F)c(F)cc3F)c(F)cc2n1 [II-0475],< 0.1 µM,1 to 10 µM,–,–
Cc1cncc(-n2c(=O)nc(Nc3cc4ccnn4cc3Cl)n(Cc3ccc(F)c(C#N)c3)c2=O)c1 [II-0477],< 0.1 µM,1 to 10 µM,–,–
Cc1cncc(-n2c(=O)nc(Nc3cc4c(cc3Cl)nc(N(C)C)n4C)n(Cc3cc(F)c(F)c(F)c3)c2=O)c1 [II-0478],< 0.1 µM,1 to 10 µM,–,–
COc1cc(Cl)c(Nc2nc(=O)n(-c3cncc(C)c3)c(=O)n2Cc2ccc(F)c(C#N)c2)cn1 [II-0479],< 0.1 µM,1 to 10 µM,–,–
CC(C)(Nc1nc(=O)n(Cc2ccc[nH]c2=O)c(=O)n1Cc1cc(F)c(F)c(F)c1)c1ccccc1F [II-0482],–,–,0.41 µM,44.5 µM
Cc1cncc(-n2c(=O)nc(N(C)c3cc4cn(C)nc4cc3Cl)n(Cc3cc(F)c(F)c(F)c3)c2=O)c1 [II-0483],–,–,1.8 µM,20.9 µM
O=c1[nH]cccc1Cn1c(=O)nc(NC2(c3ccccc3F)COC2)n(Cc2cc(F)c(F)c(F)c2)c1=O [II-0484],–,–,3.4 µM,14.2 µM
Cn1cc2cc(Nc3nc(=O)n(-c4cncc(C#N)c4)c(=O)n3Cc3cc(Cl)c(F)cc3F)c(Cl)cc2n1 [II-0485],< 0.1 µM,< 1 µM,–,–
Cn1cc2cc(Nc3nc(=O)n(-c4cncc(C#N)c4)c(=O)n3Cc3ccc(F)c(C#N)c3)c(Cl)cc2n1 [II-0486],< 0.1 µM,1 to 10 µM,–,–
Cn1cc2cc(Nc3nc(=O)n(-c4cnc5ccccn45)c(=O)n3Cc3cc(Cl)c(F)cc3F)c(Cl)cc2n1 [II-0487],< 0.1 µM,1 to 10 µM,–,–
Cn1cc2cc(Nc3nc(=O)n(-c4cncc(C#N)c4)c(=O)n3Cc3cc(F)c(F)c(Cl)c3)c(Cl)cc2n1 [II-0489],< 0.1 µM,1 to 10 µM,–,–
Cn1cc2cc(Nc3nc(=O)n(-c4cnc5ccccn45)c(=O)n3Cc3cc(F)c(F)c(Cl)c3)c(Cl)cc2n1 [II-0490],–,–,0.083 µM,8.7 µM
Cn1cc2cc(Nc3nc(=O)n(-c4cncc(C#N)c4)c(=O)n3Cc3cc(F)c(F)c(F)c3)c(Cl)cc2n1 [II-0491],< 0.1 µM,1 to 10 µM,–,–
COc1ccc(Nc2nc(=O)n(-c3cncc(C)c3)c(=O)n2-c2cccc(Cl)c2)cc1 [II-0492],–,< 1 µM,1 µM,–
CCn1cc2cc(Nc3nc(=O)n(-c4cncc(C)c4)c(=O)n3Cc3cc(C#N)ccc3C)c(Cl)cc2n1 [II-0493],–,–,0.0013 µM,0.068 µM
CCn1cc2cc(Nc3nc(=O)n(-c4cncc(C)c4)c(=O)n3Cc3cc(Cl)c(F)cn3)c(Cl)cc2n1 [II-0494],–,–,0.024 µM,0.878 µM
COc1cncc(-n2c(=O)nc(Nc3cc4cn(C)nc4cc3Cl)n(Cc3cc(F)c(F)c(F)c3)c2=O)c1 [II-0495],< 0.1 µM,< 1 µM,–,–
CNc1nc2ccc(Nc3nc(=O)n(-c4cncc(C)c4)c(=O)n3Cc3cc(C#N)ccc3C)cc2s1 [II-0496],< 0.1 µM,< 1 µM,–,–
CNc1nc2ccc(Nc3nc(=O)n(-c4cncc(C)c4)c(=O)n3Cc3cc(C#N)ccc3Cl)cc2s1 [II-0497],< 0.1 µM,< 1 µM,–,–
Cc1cncc(-n2c(=O)nc(Nc3cc4sc(NCC(F)F)nc4cc3Cl)n(Cc3cc(F)c(F)c(C#N)c3)c2=O)c1 [II-0498],< 0.1 µM,1 to 10 µM,–,–
Cn1cc2cc(Nc3nc(=O)n(-c4cncc5c4COC5)c(=O)n3Cc3cc(Cl)c(F)cc3F)c(Cl)cc2n1 [II-0499],–,–,0.012 µM,0.68 µM
Cn1cnc(Cn2c(=O)nc(Nc3cc4sc(NCC(F)F)nc4cc3Cl)n(Cc3cc(F)c(F)cc3F)c2=O)n1 [II-0500],< 0.1 µM,1 to 10 µM,–,–
